Experimental data from US9302991B2, “Arylamide derivatives as TTX-S blockers” (RaQualia Pharma Inc., priority 2010, dated 2016).

Tests used:
[1] = system: Paw incision-induced static allodynia in rats; assay: Paw incision-induced static allodynia in rats; assay type: in vivo, Sprague-Dawley rats; conditions: 30 mg/kg per os
Method: Paw Incision-Induced Static Allodynia in Rats
Male Sprague-Dawley rats at 7 weeks old are purchased from Charles River Japan Inc., and housed in groups of two per cage under a 12-h light/dark cycle (lights on at 07:00) with access to food and water ad libitum. Paw incision-induced static allodynia is assessed by VFH test. Surgery is performed according to the procedure described by Brennan et al. (Pain 1996, 64: 493-501). The animals are initially anesthetized with 3-4% isoflurane/O2 mixture in an anesthetic chamber and maintained with 2-3% delivered through a nose cone. The plantar surface of the right hind paw is sterilized with 7.5% povidone-iodine solution. A 1-cm longitudinal incision is made with a number 11 blade, through skin and fascia of the plantar aspect of the paw, starting 0.5 cm from the proximal edge of the heel and extending toward the toes. The plantaris muscle is elevated using forceps and retracted. The muscle origin and insertion remain intact. After hemostasis with gentle pressure, the skin is apposed with 2 sutures of 5-0 nylon. The wound site is covered with Terramycin ointment, and the rats are allowed to recover in their cages with soft bedding. The animals are individually placed in a Plexiglas test chamber on an elevated grid to acclimate for 1 hour before the day of surgery. […] The PWT is measured at the appropriated time after compound administration.

[2] = system: CFA-induced thermal hyperalgesia in rats; assay: Complete Freund's Adjuvant (CFA)-induced thermal hyperalgesia in rats; assay type: in vivo, Sprague-Dawley rats; conditions: 30 mg/kg per os
Method: Complete Freund's Adjuvant (CFA)-Induced Thermal Hyperalgesia in Rats
Male Sprague-Dawley rats at 6 weeks old are purchased from Charles River Japan Inc., and housed in groups of two per cage under a 12-h light/dark cycle (lights on at 07:00) with access to food and water ad libitum. CFA-induced thermal hyperalgesia is assessed using the plantar test apparatus (Ugo Basile) as described by Hargreaves K et al. (Pain 1988, 32: 77-88). The animals are placed in an apparatus consisting of individual testing box on an elevated glass table and allowed to acclimate for at least 10 minutes. Following the habituation, a mobile radiant heat source is located under the table and heat stimulation is applied to the plantar surface of the right hind paw. The latency to remove its hind paw is defined as paw withdrawal latency (PWL) in sec. The cut-off point is set at 30 seconds to prevent tissue damage. CFA is prepared at a concentration of 2-3 mg/mL of Mycobacterium tuberculosis H37 RA in liquid paraffin. After disinfections with 70% ethanol, the rats are injected intraplantarly with 100 microL of CFA (200-300 microgram) into the right hind paw. Two days after CFA injection, PWL is measured in the same manner as mentioned above. […] The PWL is measured at the appropriated time after compound administration. […]

CC(=O)Nc1cc(C(=O)NC(C)c2ccc(OCC(F)(F)F)nc2)ccn1 (single isomer, unassigned; (-)) [Example 1, (−)-2-acetamido-N-(1-(6-(2,2,2-trifluoroethoxy)pyridin-3-yl)ethyl)isonicotinamide]
activity in paw incision-induced static allodynia (PWT) [1]: significant activity | activity in CFA-induced thermal hyperalgesia (PWL) [2]: significant activity
